# What was measured:
# DMD participants [1] = test: Skeletal maturation by wrist x-ray, VBP15-LTE Month 24; type: in vivo, human; conditions: for Bone Age difference to Chronologic Age, mean (SD): wrist x-ray at LTE Month 24, n = 39
# Text: In certain embodiments, the difference between chronological age of the human patient and the bone age of the human patient is reduced. A child's bone age (also called the skeletal age) is assigned by determining which of the standard X-ray images in the atlas most closely match the appearance of the child's bones on the X-ray. A difference between a child's bone age and chronological age might indicate a growth problem. The larger the difference between the bone age of a human patient and their chronological age, the greater the growth problem or disease symptom.
# In addition, 39/41 LTE participants had wrist x-ray at Month 24; the mean bone age to chronologic age difference was −1.1 (p<0.001, CI −1.5, −0.7), indicating possible skeletal maturation delay (Table 7).
# DMD participants [2] = test: Prespecified safety evaluation: height percentile for age and BMI z-score; type: in vivo, human
# Protocol: As with the […] comparators, group-matching criteria were prespecified in the iSAP, and 2 independent statisticians carried out the participant matching. […] There was no corresponding 12-month assessment in vamorolone-treated participants. (Assessments of vamorolone-treated trial participants were 0, 3, 6, and 18 months). Standing height and weight were assessed at each study visit. Height z-score, body mass index (BMI: kg/m^2), and BMI z-score were calculated centrally. AE reporting was done per protocol in the vamorolone trials. The current study is the first to evaluate the longer-term tolerability, efficacy, and safety of vamorolone in DMD. […] Given the variable timing of dose escalations, it was prespecified that initial analyses of drug-related efficacy and safety would be limited to those participants who had 18 months of treatment with 2.0 mg/kg/day vamorolone or more (dose group C+dose group D: n=23). Outcomes for these participants were compared to a group-matched cohort from the […] over 18 months (corticosteroid-naïve, n=19: corticosteroid-treated, n=68). Participants were matched for age and treatment period (+1 month), matching criteria were prespecified in the statistical analysis plan. Two independent statisticians carried out the matching. […] Participants in the corticosteroid-treated […] group were treated for at least 18 months, but the total duration, dose, and regimens varied. Statistical analyses were done on paired longitudinal outcome data using an analysis of covariance (ANCOVA) approach with change from baseline (VBP15-002) to month 18 (midpoint of VBP15-LTE). Baseline response and age were included as covariates. For the vamorolone-treated participants, age was calculated as (date of informed consent minus birthdate)/365.25. For the DNHS participants, age was calculated as (date of baseline visit used minus birthdate)/365.25. The baseline visit for a DNHS participant was the first visit. […] Timed function tests were analyzed as velocity scores to limit the impact of participants who could not perform the test (velocity=0). Velocity measures are variance-stabilizing transformations, suppressing extreme raw outliers from raw values in seconds; these help with distributional assumptions of the statistical models/tests used. Raw data (seconds) are also reported. Velocity scores for […] (event/second), TTRW (meters/second), and […] (event/second) were inputted as 0 at the first response missing due to inability to perform the test. All other data were observed values only, without imputation. No adjustments for multiplicity on inferential statistics were specified in the iSAP.
# [3] = 18 months, vamorolone 2.0 or 6.0 mg/kg/day, DNHS corticosteroid doses and regimens varied
# [4] = vamorolone 18 months versus corticosteroid-naïve DNHS, ANCOVA
compound,measurement,setting,value
"C[C@@H]1C[C@H]2[C@@H]3CCC4=CC(=O)C=C[C@]4(C)C3=CC[C@]2(C)[C@@]1(O)C(=O)CO [Vamorolone, 17α,21-dihydroxy-16α-methylpregna-1,4,9(11)-triene-3,20-dione]","Bone Age difference to Chronologic Age, mean (SD)",DMD participants [1],"−1.1 (1.2), yr"
same,"Bone Age difference to Chronologic Age, mean (SD)",DMD participants [1]; listed as vamorolone,−1.1 yr
same,"LTE Month 24 Bone Age, mean (SD)","DMD participants [1]; wrist x-ray, n = 39, chronologic age 8.0 (1.0) yr","6.8 (1.4), n = 39 yr"
same,"Mean BMI z-score, 18-month value (SD)",DMD participants [2]; [3],1.46 (0.62)
same,"Mean BMI z-score, change from baseline (SD)",DMD participants [2]; [3],0.411 (0.615)
same,"Mean height percentile for age, 18-month value (SD)",DMD participants [2]; [3],35.24 (29.82)
same,"Mean BMI z-score, change from baseline (SD)","DMD participants [2]; 18 months, vamorolone 2.0 or 6.0 mg/kg/day, DNHS corticosteroid doses and regimens varied, listed as vamorolone",0.41
same,LS Mean change in height percentiles for age,"DMD participants [2]; DMD children treated with vamorolone, N = 22, 18 months treatment",+6.9
same,BMI change from baseline to 18 months of treatment,"DMD participants [2]; original dose group B (0.75 mg/kg/day, escalated in LTE)",0.5 kg/m^2
same,BMI change from baseline to 18 months of treatment,DMD participants [2]; original dose group C (2.0 mg/kg/day),1.11 kg/m^2
same,BMI change from baseline to 18 months of treatment,DMD participants [2]; original dose group D (6.0 mg/kg/day),2.55 kg/m^2
same,"Mean height percentile for age, LS mean difference (SE)","DMD participants [2]; vamorolone 18-month treatment versus prednisone trial 12-month treatment, ANCOVA",10.37
same,"Mean BMI z-score, LS mean difference (SE)",DMD participants [2]; [4],0.899 (0.204)
same,"Mean height percentile for age, LS mean difference (SE)",DMD participants [2]; [4],6.72 (3.48)
same,growth stunting (mean change in height percentile versus corticosteroid-treated DNHS),DMD participants [2]; vamorolone treatment group,no evidence of growth stunting
same,"Mean height percentile for age, LS mean difference (SE)","DMD participants [2]; vamorolone versus corticosteroid-treated DNHS, 18 months, ANCOVA",15.86

# From patent US20240226117A1, “TREATMENT OF CONGENITAL ADRENAL HYPOPLASIA” (ReveraGen BioPharma, Inc., priority 2021, published 2024)
